Test results from patent publication US10675293B2, “Nucleoside agents for the reduction of the deleterious activity of extended nucleotide repeat containing genes” (The Board of Trustees of the Leland Stanford Junior …, priority 2015, dated 2020).
Entries after “also recorded” stand apart in the source; their conditions may differ.

Assays:
[1] = molecular target: T1, Supt4h-YC / Supt5h NGN-YN interaction (Homo sapiens, UniProt O00267+P63272); assay: Bimolecular fluorescence complementation (BiFC) assay in 2-PN4 stable cells; type: cell-based
T1 construct: NGN-YN is a genetic engineered protein in which Supt5h NGN domain is fused to YFP YN; expressed in transfected cells
Experimental: Human Supt4h and Supt5hNGN were fused in-frame with the YC and YN respectively. The YN and YC represent the N- and C-terminal domain of yellow fluorescent protein Venus. To prevent a change in protein folding caused by the conjugation of two polypeptides (Kerppola, “Design and implementation of bimolecular fluorescence complementation (BiFC) assays for the visualization of protein interactions in living cells,” Nature protocols (2006) 1:1278-1286), a protein linker containing additional 10 amino acid residues was included in the fusion protein. Also, extra amino acids GSHM were incorporated into the Supt5hNGN to increase its protein stability (Wenzel et al., “Crystal structure of the human transcription elongation factor DSIF hSpt4 subunit in complex with the hSpt5 dimerization interface,” The Biochemical journal (2010) 425:373-380). Supt4h, NGN, YC, and YN were amplified by PCR to generate DNA fragments containing the nucleotide sequence of protein linker. Supt4h and NGN PCR products then were mixed with the PCR product of YN or YC for secondary overlapping PCR. Finally, the resulting Supt4h-YC and NGN-YN DNA fragment was cloned into plasmid vector pcDNA3-HA and pFLAG-CMV-2 respectively.
Tet-on HeLa cells were transfected with linearized pTRE-HA-Supt4h-VC-Flag-NGN-VN plasmid construct using LipofectAMINE 2000 (Invitrogen). After transfection, cells were cultured initially in growth medium containing puromycin (1 μg/ml) and then selected for clones that show YFP fluorescence in the presence of tetracycline (4 μg/ml). The stable line having the strongest fluorescence signal was isolated and designated as 2-PN4. Likewise, 21-VS stable line was created using pTRE-HA-Venus.
Stable lines 2-PN4 and 21-VS were pre-cultured in 6-well plates, followed by an incubation of Doxycycline (4 μg/ml) together with various concentrations of chemical compounds for 24 hr. Cells were washed with PBS (Sigma) and monitored by microscope (20× magnification). Photos were taken using Nikon D500 camera with a setting of ISO 1600, shutter 1/200 for the light images, and shutter ½ for the fluorescence images. For quantification of fluorescence intensity, 5 photos with similar cell number were taken and the fluorescence signal was measured by Metamorph software individually. The average of overall fluorescence signal was determined and compared to the one observed in DMSO-treated control sample.
For the purpose of high-throughput drug screening, based on the BiFC method as mentioned above, we have created a stable cell line that co-expresses NGN-YN and Supt4h-YC under the control of a tet-on inducible promoter. […] If the complementation that is driven by NGN and Supt4h interaction is inhibited by a given test compound, the de novo YFP fluorescence signal is affected. […]

[2] = system: mutant Huntingtin protein; assay: Western blot of mutant HTT in Huntington's disease patient iPSC ND36999; type: cell-based, human; details: iPSC with 180 CAG repeats, 24 hr
Experimental: Cell samples were lysed in 30 mM Tris-HCl, pH 8.0, 5 mM NaCl, 0.1% Triton X-100 for 10 min on ice. The supernatants from spinning (14 k rpm for 10 min) were collected. The protein concentrations were determined by BCA assay (Pierce, ThermoFisher). Equal amounts of protein were loaded onto 4-12% gel. After electrophoresis, the gels were transferred to nitrocellulose membranes by wet transfer at 35V for 16 hr. The protein level of mutant HTT, total HTT and tubulin were determined by immunoblotting with anti-poly Glutamine (MAB1574 from Millipore), anti-Huntingtin protein (MAB2166 from Millipore) and anti-alpha tubulin (AJ1034a from ABGENT). Blots were imaged on a Li-Cor Odyssey infrared imager. The bands intensities were determined by Li-Cor Odyssey software.
To test whether the nucleoside 6-Azauridine (HD101) and (−)-6-Azauridine 2′,3′,5′-triacetate (HD106) can affect the expression of proteins with long polyQ domains, one iPSC (induced pluripotent stem cell) line ND36999, which was derived from a Huntington's disease patient who carries one allele of mutant htt gene with 180 CAG repeats, was purchased from the Coriell Institute. The iPSCs were plated into a 24-well plate coated with Matrigel. […] Cells were lysed and the protein concentrations were determined by BCA assay. […] The image (FIG. 10) was taken and the quantification was made by Li-Cor Odyssey imaging system.

In the case of O=c1cnn([C@@H]2O[C@H](CO)[C@@H](O)[C@H]2O)c(=O)[nH]1 [HD101, 6-Azauridine], the “reduction of BiFC signal compared to mock controls” value ([1]; 0.02 μM, 24 hr) is reported as “approximately 70%”, the “BiFC fluorescence signal of 2-PN4 cells” value ([1]; various concentrations, 24 hr with Doxycycline 4 μg/ml) is reported as “inhibits the fluorescence signal of BiFC” and the “mutant Huntingtin protein level” value [2] is reported as “preferentially decrease mutant Huntingtin protein in a dose dependent manner; also recorded: reduced mutant huntingtin expression in a dose dependent manner”.
